Assay results: PubChem BioAssay (NCI)
Several values for one entry are separate records, joined by “and”; a condition that tells them apart may be missing. Identical values can stand only once.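 Cultured in 96-well plates, cells were exposed to test compound for 48 hours across five concentrations. Abbreviation: GI50, concentration required for 50% inhibition of growth. TGI: total growth inhibition.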

Experiments:
Experiment in all cases: inhibition of tumour cell growth, NCI panel, 48 h
NCI-H23 lung = tested on: NCI-H23 lung
SNB-75 CNS = tested on: SNB-75 CNS
NCI-H226 lung = tested on: NCI-H226 lung
HCC-2998 colon = tested on: HCC-2998 colon
T-47D breast = tested on: T-47D breast
DU-145 prostate = tested on: DU-145 prostate
SW-620 colon = tested on: SW-620 colon
ACHN renal = tested on: ACHN renal

SMILES	TGI (NCI-H23 lung)	TGI (SNB-75 CNS)	TGI (NCI-H226 lung)	TGI (HCC-2998 colon)	TGI (T-47D breast)	TGI (DU-145 prostate)	TGI (SW-620 colon)	TGI (ACHN renal)	GI50 (NCI-H23 lung)	GI50 (SNB-75 CNS)	GI50 (NCI-H226 lung)	GI50 (HCC-2998 colon) [µM]	GI50 (T-47D breast)	GI50 (DU-145 prostate)	GI50 (SW-620 colon) [µM]	GI50 (ACHN renal)
CC1CC(O)C(=O)C(O[C@@H]2C[C@@H]3CC[C@@H]4[C@H](CC[C@]5(C)C(C6=CC(=O)OC6)CC[C@]45O)[C@@]3(C=O)C[C@H]2O)O1 (some centres undefined)	0.0565 µM	0.18 µM	0.228 µM	0.243 µM	0.205 µM	0.0237 µM	0.158 µM	0.0406 µM	–	–	–	–	–	–	–	–
COc1ccc(C(=O)c2cc(OC)c(OC)c(OC)c2)cc1OC	> 100 µM	> 100 µM	–	5.79 µM	–	> 100 µM	> 100 µM	> 100 µM	–	–	–	–	–	–	–	–
Cc1ccc(OCCOCCOCCOCCOc2ccc(C)n(O)c2=S)c(=S)n1O	> 100 µM	> 100 µM	12.7 µM	> 100 µM	> 100 µM	> 100 µM	> 100 µM	> 100 µM	0.0166 µM	3.49 µM	< 0.0291 µM	0.25	< 0.01 µM	0.184 µM	< 0.0127	< 0.0147 µM
COc1ccc(/C(C)=C(\c2ccc(OCCN3CCCCCC3)cc2)c2ccc(OC(=O)C3CCCCC3)cc2)cc1	4.32 µM	3.88 µM	4.77 µM	3.36 µM	3.33 µM	4.54 µM	3.15 µM	3.56 µM	1.29 µM	1.6 µM	2.02 µM	1.24	0.405 µM	1.91 µM	0.948	1.73 µM
CC(C)[C@H](O)C(=O)N[C@@H](C)C(=O)N[C@@H]1C(=O)N(C)CCc2ccccc21	> 100 µM	> 100 µM	> 100 µM	> 100 µM	> 100 µM	> 100 µM	> 100 µM	> 100 µM	> 100 µM	> 100 µM	> 100 µM	> 100	> 100 µM	> 100 µM	> 100	> 100 µM
O=C1CCCN1c1ccccc1I(=O)=O	> 100 µM	> 100 µM	> 100 µM	> 100 µM	> 100 µM	> 100 µM	> 100 µM	> 100 µM	> 100 µM	> 100 µM	> 100 µM	> 100	91.4 µM	> 100 µM	> 100	> 100 µM
OC(c1cc(-c2ccc(C(F)(F)F)cc2)nc(C(F)(F)F)c1)C1CCCCN1 (centres undefined)	3.15 µM and 6.12 µM	2.69 µM and 10.6 µM	3.21 µM and 6.83 µM	1.76 µM and 3.07 µM	3.31 µM and 6.2 µM	3.14 µM and 7.06 µM	3.33 µM and 3.36 µM	2.9 µM and 6.39 µM	1.68 µM and 2.39 µM	1.37 µM and 3.96 µM	1.73 µM and 2.56 µM	0.53	1.66 µM and 2.33 µM	1.76 µM and 2.66 µM	–	1.56 µM and 2.37 µM
CC(C)(C)[Si](C)(C)OC1[C@@H](CNC(=O)NC(=O)CCl)O[C@@H](n2cnc3c(N)ncnc32)[C@H]1O[Si](C)(C)C(C)(C)C (some centres undefined)	2.08 µM	2.47 µM	2 µM	3.95 µM	2.13 µM	5.26 µM	1.77 µM	1.11 µM	0.955 µM	0.867 µM	0.956 µM	1.61	1.03 µM	2.05 µM	0.891	0.462 µM
CCCC(=O)C1=C(O)C(Cc2c(O)c(C)c(O)c(C(=O)CCC)c2O)=C(O)C(C)(C)C1=O	> 50 µM	> 50 µM	–	34.2 µM	> 50 µM	> 50 µM	> 50 µM	> 50 µM	–	–	–	–	–	–	–	–
c1ccc2c(c1)[nH]c1c2cc[n+]2cc3c(cc12)CCCC3	6.95 µM	12.9 µM and 35.9 µM	7.61 µM and 5.77 µM	7.71 µM and 4.66 µM	13.6 µM and 22.4 µM	11 µM and 17 µM	11.6 µM and 16.2 µM	16.1 µM and 14.1 µM	–	3.07 µM	–	2.67	2.47 µM	–	2.35	–
COc1ccc(-c2nc(-c3cc(OC)cc(OC)c3)[nH]c2-c2ccc(OC)cc2)cc1	> 100 µM	> 100 µM	> 100 µM	> 100 µM	9.25 µM	> 100 µM	> 100 µM	> 100 µM	4.72 µM	> 100 µM	5.47 µM	5.96	2.36 µM	65.5 µM	54.1	5.56 µM
O=C(NCc1ccc(Cn2c(=O)sn(-c3ccccc3)c2=O)cc1)OCc1ccc2cccc(O)c2n1	3.06 µM	2.08 µM	2.77 µM	3.51 µM	4.59 µM	2.29 µM	0.951 µM	1.47 µM	1.46 µM	0.783 µM	1.27 µM	1.81	1.49 µM	1.08 µM	0.301	0.393 µM
CCC(C)(O)c1cnc(CC(C)C)c(=O)n1O (centres undefined)	> 100 µM	> 100 µM	–	> 100 µM	> 100 µM	> 100 µM	> 100 µM	> 100 µM	–	–	–	–	–	–	–	–
Nc1cc2c(cc1Br)[nH]c(=O)c1ccccc12	5.29 µM	11.9 µM	27.5 µM	17.1 µM	55.8 µM	4.76 µM	29 µM	20.1 µM	1.8 µM	2.66 µM	5.15 µM	5.5	4.22 µM	2.14 µM	7.73	3.09 µM
COC(=O)C1C(O)C(C(=O)OC)C(C)N(C)C1C (centres undefined)	> 100 µM	–	> 100 µM	–	–	–	> 100 µM	> 100 µM	–	–	–	–	–	–	–	–
CCc1ccc2c(c1)C(=O)c1c-2n(CCCN=[N+]=[N-])c(=O)c2cc([N+](=O)[O-])ccc12	> 50 µM	> 50 µM	> 50 µM	> 50 µM	> 50 µM	> 50 µM	> 50 µM	> 50 µM	> 50 µM	25.5 µM	> 50 µM	> 50	> 50 µM	> 50 µM	> 50	> 50 µM
COc1ccc(-c2nn(-c3cccc(Cl)c3)cc2-c2cc(-c3ccccc3)[nH]c(=O)c2C#N)cc1	13.6 µM	3.61 µM	> 50 µM	> 50 µM	7.43 µM	> 50 µM	> 50 µM	10.7 µM	2.46 µM	1.17 µM	0.969 µM	15.9	1.64 µM	10.3 µM	9.23	1.83 µM
